Results on eight compounds are retold here after patent US11541028B2, “Peptide pharmaceuticals for treatment of NASH and other disorders” (Mederis Diabetes LLC, priority 2018, dated 2023).

SMILES strings stand for the structures. Square brackets hold non-standard residues; d marks the D form. Peptide text beside a SMILES is read from it. * marks the point of attachment. GlcA(β-D,1-O-dodecyl) = CCCCCCCCCCCCO[C@@H]1O[C@H](C(=O)*)[C@@H](O)[C@H](O)[C@H]1O; αMeF = C[C@](N)(Cc1ccccc1)C(=O)O; Ac4c = NC1(C(=O)O)CCC1; Aib = CC(C)(N)C(=O)O

The target in one data set is T1, Glucagon R (Homo sapiens, UniProt P47871).
T1 construct: host or cells: CHO cells
T1 sequence (P47871 26-477): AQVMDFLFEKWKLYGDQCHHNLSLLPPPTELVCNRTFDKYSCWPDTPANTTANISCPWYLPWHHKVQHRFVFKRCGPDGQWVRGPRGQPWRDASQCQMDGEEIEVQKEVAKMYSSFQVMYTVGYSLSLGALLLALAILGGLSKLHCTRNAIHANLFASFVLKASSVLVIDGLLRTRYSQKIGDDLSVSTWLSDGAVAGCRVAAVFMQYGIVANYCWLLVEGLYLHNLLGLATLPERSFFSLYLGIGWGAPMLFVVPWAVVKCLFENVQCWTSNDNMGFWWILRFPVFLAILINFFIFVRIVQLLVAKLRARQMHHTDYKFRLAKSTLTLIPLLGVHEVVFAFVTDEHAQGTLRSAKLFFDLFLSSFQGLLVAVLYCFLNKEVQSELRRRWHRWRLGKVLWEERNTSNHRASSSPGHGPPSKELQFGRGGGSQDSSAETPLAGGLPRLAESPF
The data set can be described thus: Cerep cellular assay, stimulation of cAMP levels, glucagon (human, cloned into CHO cells). Format: cell-based. The note with it: human receptor in CHO cells (Cerep). As to the method: (§1) Compounds were weighed precisely in an amount of about 1 mg and assayed in standard cellular assays (Cerep SA). The readout was the amount of cAMP generated in the cells treated with the test compounds, in either agonist or antagonist mode. […] The assays are described in Chicchi et al., J. Biol. Chem., 272:7765-7769 (1997) and Runge et al., Br. J. Pharmacol., 138:787-794 (2003).

In a further data set the target is T2, GLP-1 R (Mus musculus, UniProt O35659).
T2 construct: GLP-1 (murine cell line) cellular assays
T2 sequence (O35659 22-463): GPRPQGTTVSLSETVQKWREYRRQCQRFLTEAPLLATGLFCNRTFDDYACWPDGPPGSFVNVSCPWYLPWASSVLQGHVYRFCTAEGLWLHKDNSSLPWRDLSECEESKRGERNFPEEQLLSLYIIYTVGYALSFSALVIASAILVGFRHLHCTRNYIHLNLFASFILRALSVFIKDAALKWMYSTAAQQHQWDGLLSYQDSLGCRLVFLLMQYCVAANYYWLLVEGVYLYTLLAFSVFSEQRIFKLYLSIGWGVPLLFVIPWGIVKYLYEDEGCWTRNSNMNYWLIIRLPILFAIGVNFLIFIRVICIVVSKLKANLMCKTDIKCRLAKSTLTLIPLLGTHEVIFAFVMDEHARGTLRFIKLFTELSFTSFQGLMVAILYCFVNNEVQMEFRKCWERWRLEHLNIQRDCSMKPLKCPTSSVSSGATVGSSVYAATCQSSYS
The data set can be described thus: Cerep cellular assay, stimulation of cAMP levels, GLP-1 (murine cell line). The arrangement: key: §means superagonist; n.c. means EC50 not calculable. The data set is classed as cell-based. The note with it: for EC50 GLP-1 R (nM): n.c. = EC50 not calculable. As to the method: as §1

Another data set has as its target T3, human GLP-1 receptor (Homo sapiens, UniProt P43220).
T3 construct: host or cells: CHO cells
The data set is described as follows: DiscoveRx LeadHunter cellular assay, cAMP stimulation, GLP-1 receptor in CHO cells. Format: cell-based. The note with it: human GLP-1 receptor in CHO cells (DiscoveRx); read-out: EC50 cAMP GLP-1 R.

In another data set the target is T4, human glucagon receptor (Homo sapiens, UniProt P47871).
T4 construct: host or cells: CHO cells
T4 sequence (P47871 26-477): as the sequence (P47871 26-477) above
The data set is described as follows: DiscoveRx LeadHunter cellular assay, cAMP stimulation, glucagon receptor in CHO cells. The data set is classed as cell-based.

Another data set has as its system DIO C57BL/6J mice. The data set can be described thus: Activity in diet-induced obese (DIO) mice. The data set is classed as in vivo. As to the method: Fifty diet-induced obese (DIO) C57BL/6J male mice (JAX Labs) were received at 6 wks of age. The mice were ear notched for identification and housed individually in positively ventilated polycarbonate cages with HEPA-filtered air at a density of […]. The animal room was lit entirely with artificial fluorescent lighting, with a controlled 12 hr light/dark cycle. The normal temperature and relative humidity ranges in the animal rooms were 22±4° C. and 50±15%, respectively. Filtered tap water, acidified to a pH of 2.8-3.1, and a high-fat diet (Research Diets D12492, 60 kcal %) were provided ad libitum.
Following a 2 week acclimation, the 50 mice were randomized into groups (n=10): Group 1: treated with vehicle; Group 2: low-dose EU-A994; Group 3: high-dose […]; Group 4: low-dose EU-A1024; and Group 5: high-dose EU-A1024. Mice were dosed subcutaneously on days 1 (at 0 and 7 hr), 3, 6, 9, 12, 15, 18, 21 and 24. Body weight and cage-side observations were recorded daily. Food and water intake was recorded weekly. Mice underwent NMR measurements for determination of whole-body fat and lean composition on days 1 (pre-dose) and 26. On day 26, mice were fasted overnight for an oral glucose tolerance test. Next day, the first blood sample was collected via tail nick (t=0). Mice were then administered a bolus of 1.0 g/kg glucose. Blood samples were obtained via tail nick at 0, 15, 30, 60, 90 and 120 min after glucose dosing, and plasma glucose was immediately determined using a glucometer.
Mice were sacrificed on day 28. Terminal blood was processed to serum/plasma, and aliquots were sent for analysis of glucose, insulin and lipid profile. Body composition was determined by NMR.

For data set [1] the following is noted: incubation in human plasma at 30° C, in 4 hours.
The mark [2] stands for this setting: days 1 (pre-dose) and 26 (FIG. 11).
Setting [3] is: sc on days 1 (0 and 7 hr), 3, 6, 9, 12, 15, 18, 21 and 24.

T3 sequence (P43220 24-463): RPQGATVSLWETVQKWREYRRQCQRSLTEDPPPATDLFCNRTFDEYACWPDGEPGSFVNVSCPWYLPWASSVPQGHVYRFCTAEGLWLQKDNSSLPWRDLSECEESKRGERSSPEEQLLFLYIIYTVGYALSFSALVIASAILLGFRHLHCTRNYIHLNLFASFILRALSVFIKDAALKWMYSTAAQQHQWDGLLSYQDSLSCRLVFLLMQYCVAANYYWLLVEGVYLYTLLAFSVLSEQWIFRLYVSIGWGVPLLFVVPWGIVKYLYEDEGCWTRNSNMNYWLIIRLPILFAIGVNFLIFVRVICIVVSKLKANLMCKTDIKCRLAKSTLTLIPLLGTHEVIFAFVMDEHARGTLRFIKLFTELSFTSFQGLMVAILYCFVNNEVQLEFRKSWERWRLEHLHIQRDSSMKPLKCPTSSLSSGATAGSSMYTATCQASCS
Experimental for human GLP-1 receptor: (§4801) A further series of cellular assays was carried out with standard cellular assays (DiscoveRx, LeadHunter assays) using readout of cAMP stimulation or arrestin activation. Compounds were weighed precisely in an amount of about 1 mg and shipped to DiscoveRx for dilution and assay.
Experimental for human glucagon receptor: as §4801

As to `CCCCCCCCCCCCO[C@@H]1O[C@H](C(=O)NCCCC[C@H](NC(=O)C(C)(C)NC(=O)[C@H](CC(=O)O)NC(=O)[C@H](CC(C)C)NC(=O)[C@H](Cc2ccc(O)cc2)NC(=O)[C@H](CCCCN)NC(=O)[C@H](CO)NC(=O)[C@H](Cc2ccc(O)cc2)NC(=O)[C@H](CC(=O)O)NC(=O)[C@H](CO)NC(=O)[C@@H](NC(=O)[C@](C)(Cc2ccccc2)NC(=O)[C@@H](NC(=O)CNC(=O)[C@H](CCC(N)=O)NC(=O)C(C)(C)NC(=O)[C@@H](N)Cc2c[nH]cn2)[C@@H](C)O)[C@@H](C)O)C(N)=O)[C@@H](O)[C@H](O)[C@H]1O` [EU-A391] (H-H[Aib]QGT[αMeF]TSDYSKYLD[Aib]K(GlcA(β-D,1-O-dodecyl))-NH2; N-terminus assumed), the GCGR cellular response result on Glucagon R is “did not change”.

Take `CCCCCCCCCCCCO[C@@H]1O[C@H](C(=O)NCCCC[C@H](NC(=O)[C@H](CC(=O)O)NC(=O)[C@H](CC(C)C)NC(=O)[C@H](Cc2ccc(O)cc2)NC(=O)[C@H](CCCCN)NC(=O)[C@H](CO)NC(=O)[C@H](Cc2ccc(O)cc2)NC(=O)[C@H](CC(=O)O)NC(=O)[C@H](CO)NC(=O)[C@@H](NC(=O)[C@H](Cc2ccccc2)NC(=O)[C@@H](NC(=O)CNC(=O)[C@H](CCC(N)=O)NC(=O)C(C)(C)NC(=O)[C@@H](N)Cc2c[nH]cn2)[C@@H](C)O)[C@@H](C)O)C(=O)NC2(C(N)=O)CCC2)[C@@H](O)[C@H](O)[C@H]1O` [EU-A522] (H-H[Aib]QGTFTSDYSKYLDK(GlcA(β-D,1-O-dodecyl))[Ac4c]-NH2; N-terminus assumed): the “EC50 GLP-1 R (nM)” value at GLP-1 R is “n.c”.

For `CCCCCCCCCCCCO[C@@H]1O[C@H](C(=O)NCCCC[C@H](NC(=O)[C@H](CO)NC(=O)[C@H](CC(=O)O)NC(=O)[C@H](CC(C)C)NC(=O)[C@H](Cc2ccc(O)cc2)NC(=O)[C@H](CCCCN)NC(=O)[C@H](CO)NC(=O)[C@H](Cc2ccc(O)cc2)NC(=O)[C@H](CC(=O)O)NC(=O)[C@H](CO)NC(=O)[C@@H](NC(=O)[C@H](Cc2ccccc2)NC(=O)[C@@H](NC(=O)CNC(=O)[C@H](CCC(N)=O)NC(=O)C(C)(C)NC(=O)[C@@H](N)Cc2c[nH]cn2)[C@@H](C)O)[C@@H](C)O)C(=O)NC(C)(C)C(N)=O)[C@@H](O)[C@H](O)[C@H]1O` [EU-A527], the “EC50 GLP-1 R (nM)” value on GLP-1 R was “n.c”.

For `CCCCCCCCCCCCO[C@@H]1O[C@H](C(=O)NCCCC[C@H](NC(=O)[C@H](CO)NC(=O)[C@H](CC(=O)O)NC(=O)[C@H](CC(C)C)NC(=O)[C@H](Cc2ccc(O)cc2)NC(=O)[C@H](CCCCN)NC(=O)[C@H](CO)NC(=O)[C@H](Cc2ccc(O)cc2)NC(=O)[C@H](CC(=O)O)NC(=O)[C@H](CO)NC(=O)[C@@H](NC(=O)[C@H](Cc2ccccc2)NC(=O)[C@@H](NC(=O)CNC(=O)[C@H](CCC(N)=O)NC(=O)C(C)(C)NC(=O)[C@@H](N)Cc2c[nH]cn2)[C@@H](C)O)[C@@H](C)O)C(=O)N[C@@H](CCCNC(=N)N)C(=O)NC(C)(C)C(N)=O)[C@@H](O)[C@H](O)[C@H]1O` [EU-A529], the “EC50 GLP-1 R (nM)” value at GLP-1 R is reported as “n.c”.

For `CCCCCCCCCCCCCCO[C@@H]1O[C@H](C(=O)NCCCC[C@H](NC(=O)[C@H](CCCNC(=N)N)NC(=O)[C@H](CO)NC(=O)[C@H](CC(=O)O)NC(=O)[C@H](CC(C)C)NC(=O)[C@H](Cc2ccc(O)cc2)NC(=O)[C@H](CCCCN)NC(=O)[C@H](CO)NC(=O)[C@H](Cc2ccc(O)cc2)NC(=O)[C@H](CC(=O)O)NC(=O)[C@H](CO)NC(=O)[C@@H](NC(=O)[C@H](Cc2ccccc2)NC(=O)[C@@H](NC(=O)CNC(=O)[C@H](CCC(N)=O)NC(=O)C(C)(C)NC(=O)[C@@H](N)Cc2c[nH]cn2)[C@@H](C)O)[C@@H](C)O)C(=O)NC(C)(C)C(N)=O)[C@@H](O)[C@H](O)[C@H]1O` [EU-A535], the “efficacy class at GLP-1 R (mark in EC50 cell)” value on GLP-1 R is given as “§4800”.

For the compound `CCCCCCCCCCCCCCO[C@@H]1O[C@H](C(=O)NCCCC[C@@H]2NC(=O)[C@H](CCC(N)=O)NC(=O)[C@@H](NC(=O)[C@H](CC(=O)O)NC(=O)[C@H](CC(C)C)NC(=O)[C@H](Cc3ccc(O)cc3)NC(=O)[C@H](CCCCN)NC(=O)[C@H](CO)NC(=O)[C@H](Cc3ccc(O)cc3)NC(=O)[C@H](CC(=O)O)NC(=O)[C@H](CO)NC(=O)[C@@H](NC(=O)[C@H](Cc3ccccc3)NC(=O)[C@@H](NC(=O)CNC(=O)[C@H](CCC(N)=O)NC(=O)C(C)(C)NC(=O)[C@@H](N)Cc3c[nH]cn3)[C@@H](C)O)[C@@H](C)O)CCC(=O)NCCCC[C@@H](C(N)=O)NC(=O)[C@H](C)NC2=O)[C@@H](O)[C@H](O)[C@H]1O` [EU-A540], the “EC50 GLP-1 R (nM)” value on GLP-1 R is “n.c”.

Turning to `CCCCCCCCCCCCCCO[C@@H]1O[C@H](CO[C@H]2O[C@H](C(=O)NCCCC[C@H](NC(=O)[C@@H](NC(=O)[C@H](Cc3ccccc3)NC(=O)[C@H](CCC(=O)O)NC(=O)[C@@H]3CCCCNC(=O)CC[C@H](NC(=O)[C@H](CC(=O)O)NC(=O)[C@H](CC(C)C)NC(=O)[C@H](Cc4ccc(O)cc4)NC(=O)[C@H](CCCCN)NC(=O)[C@H](CO)NC(=O)[C@H](Cc4ccc(O)cc4)NC(=O)[C@H](CC(=O)O)NC(=O)[C@H](CO)NC(=O)[C@@H](NC(=O)[C@H](Cc4ccccc4)NC(=O)[C@@H](NC(=O)CNC(=O)[C@H](CCC(N)=O)NC(=O)C(C)(C)NC(=O)[C@@H](N)Cc4c[nH]cn4)[C@@H](C)O)[C@@H](C)O)C(=O)N[C@@H](CCC(N)=O)C(=O)N[C@@H](C)C(=O)N[C@@H](C)C(=O)N3)[C@@H](C)CC)C(=O)N[C@@H](Cc3c[nH]c4ccccc34)C(=O)N[C@@H](CC(C)C)C(=O)N[C@@H](CC(C)C)C(=O)N[C@@H](CCC(N)=O)C(=O)N[C@H](C(N)=O)[C@@H](C)O)[C@H](O)[C@H](O)[C@H]2O)[C@@H](O)[C@H](O)[C@H]1O` [EU-A1024], on human GLP-1 receptor, the EC50 amounted to 5 pM. The compound further showed an EC50 on human glucagon receptor of 0.035 nM. Further, in the data set on DIO C57BL/6J mice (setting [2]), the “fat mass (NMR)” value is recorded as “reduced fat mass” and the “lean mass (NMR)” value is “little effect on lean mass”. In the data set with DIO C57BL/6J mice (setting [3]), the basal insulin secretion result is listed as “reduced basal insulin secretion”, the “glucose excursion in the oral glucose tolerance test (OGTT)” value is given as “reduced glucose excursion” and the glucose-dependent insulin secretion result was “increased glucose-dependent insulin secretion”. In addition, the weight gain result with DIO C57BL/6J mice (sc on days 1 (0 and 7 hr), 3, 6, 9, 12, 15, 18, 21 and 24 (FIG. 10)) is on record as “reduced weight gain”.

`CC[C@H](C)[C@H](NC(=O)[C@H](Cc1ccccc1)NC(=O)[C@H](CCC(=O)O)NC(=O)[C@H](CCCCN)NC(=O)[C@H](C)NC(=O)[C@H](C)NC(=O)[C@H](CCC(N)=O)NC(=O)CNC(=O)[C@H](CCC(=O)O)NC(=O)[C@H](CC(C)C)NC(=O)[C@H](Cc1ccc(O)cc1)NC(=O)[C@H](CO)NC(=O)[C@H](CO)NC(=O)[C@@H](NC(=O)[C@H](CC(=O)O)NC(=O)[C@H](CO)NC(=O)[C@@H](NC(=O)[C@H](Cc1ccccc1)NC(=O)[C@@H](NC(=O)CNC(=O)[C@H](CCC(=O)O)NC(=O)[C@H](C)NC(=O)[C@@H](N)Cc1c[nH]cn1)[C@@H](C)O)[C@@H](C)O)C(C)C)C(=O)N[C@@H](C)C(=O)N[C@@H](Cc1c[nH]c2ccccc12)C(=O)N[C@@H](CC(C)C)C(=O)N[C@H](C(=O)N[C@@H](CCCCN)C(=O)NCC(=O)N[C@@H](CCCNC(=N)N)C(N)=O)C(C)C` [GLP-1(7-36)]: the “cleavage of compound in human plasma (compound signal versus time)” value in data set [1] is recorded as “essentially complete cleavage”.
